Experimental data: US20070270455A1, “INHIBITION OF NF-kB” (priority 2005, published 2007)
Residues, ends and D or L forms follow the SMILES beside them. *: point of attachment. Cbz = O=C(OCc1ccccc1)*

Tests used:
ACHN cells = test: ACHN tumor xenograft growth; type: in vivo, nude mice
Experimental: (§1) IC50% for each cell line and each drug was determined. Each point represents IC50% of particular cell line, which are grouped as follows: (i) black circles—RCC cell lines (ACHN, RCC9, RCC13, RCC29, RCC45, RCC54), (ii) red triangles—non-RCC cell lines (MCF7, HT1080, H1299, U20S, LNCaP, HCT116), (iii) green squares—normal kidney cells (NKE). […] 10^7 of ACHN cells were inoculated under the skin of nude mice. At the moment tumors achieved 5 mm in diameter QC administrations were started intraperitoneally, 50 mg/kg. 5FU (35 mg/kg) was used as a control. Tumor size was measured every other day and presented as a fold increase in tumor volume.
(§2) NIH Swiss athymic nude, male mice, 5-6 weeks old were purchased from Harlan. 5×10^6 of tumor cells were inoculated into the flank of mice in 100 μL of PBS. […] As vehicle, 50% DMSO solution in PBS was used. Tumor size was measured in three dimensions every other day.

IκB = test: Western blot of IκB level and phosphorylation; type: cell-based; conditions: PC-3 cells, 10 μM; MCF7 cells
Experimental: (§3) Western blot analysis of total protein lysates was performed using antibodies against p53 (DO1) and against specific sites of phosphorylation in p53. […] HCT116 cells were treated for 30 minutes with 1 μM PS-341. PS-341 was washed off after 30 minutes and cells were re-incubated in drug free medium prior to analysis at 3 hours or 16 hours post-treatment. […] Proteasome activity was determined by measuring the absorbance of free AMC generated by cleavage of an AMC-fluorogenic peptide. The proteasome activity of untreated cells was set at 100%. […] Cell lysates were isolated at the indicated hours after treatment and used for western blotting. […]
(§4) Cells were lysed in RIPA buffer (25 mM Tris HCl, pH7.2, 125 mM NaCl, 1% NP40, 1% sodium deoxycholate, 1 mM EDTA) containing 1 mM PMSF (Sigma), 10 μg/ml of aprotinin (Sigma) and 10 μg/ml of leupeptin (Sigma). Protein concentrations were determined with BioRad Dc protein assay kit. […] The following antibodies were used: anti-p53—monoclonal mouse DO1 (Santa-Cruz), anti-p21—monoclonal mouse F-5 (Santa-Cruz), anti-mdm2—monoclonal mouse SMP14 (Santa-Cruz). p53 phosphorylation status was analyzed using phospho-p53 sampler kit from Cell signaling according to manufacturer's recommendations, anti-p65—(C20, Santa Cruz), anti-phospho-p65—(ser536, Cell Signaling), anti-IκBa—(C21, Santa Cruz), anti-p50—(NLS, Santa Cruz). […]

[1] = system: HT1080-sip53 and HT1080-siGFP cells; test: Cell survival assay in isogenic cell pairs with anti-p53 or control siRNA; type: cell-based, human; conditions: p53 plus vs minus cells; FIG. 4d
[2] = system: RCC specimens and fragments of normal kidney; test: p53-responsive lacZ reporter in ex vivo organ cultures; type: cell-based; conditions: 24 hours, X-gal
Experimental: as §1
Fresh RCC specimens and fragments of normal kidney from the same patients were placed in short-term organ cultures in the media containing lentiviral vector carrying p53-responsive lacZ reporter (FIG. 10B) for 24 hours.

p53 = test: Western blot of p53 phosphorylation status in RCC45 cells; type: cell-based; conditions: 9AA 5 μM or dox 1 μM, 16 hours
Experimental: as §3, §4

HT1080sip53 cells = test: Xenograft tumor growth, p53-deficient tumors; type: in vivo, nude mice; conditions: 50 mg/kg i.p. daily
Experimental: (§5) HT1080ConALuC cells were inoculated into two flanks of nude mice. When tumors reach 5 mm in diameter, mice were injected intraperitoneally with indicated concentrations of the drugs (mg/kg, 3 mice per group). After 24 hours mice were sacrificed, tumors were isolated, lysed in Reporter Lysis Reagent (Promega) and luciferase activity was measured in […] of tumor proteins. Bars represent fold of induction of luciferase activity in tumors, treated with drugs over luciferase activity in tumors treated with vehicle. FIG. 5B: HT1080sip53 or HT1080siGFP cells were inoculated in the left and right flank of nude mice respectively.
as §2

HT1080ConALuC tumors = test: p53-dependent luciferase reporter in xenograft tumors; type: in vivo; conditions: intraperitoneal; 24 hours; nude mice
Experimental: as §5, §2
The in vivo anti-tumor effects of aminoacridines were tested in a xenograft tumor model using HT1080 cells differing in their p53 status and carrying p53 luciferase reporters grown subcutaneously in nude mice.

RCC45ConALacZ cells = test: p53-responsive reporter (ConALacZ) β-galactosidase assay in RCC45 cells; type: cell-based; conditions: compared with doxorubicin
Experimental: 2×10^4 of RCC45ConALacZ cells were plated into wells of 96 well plates in 200 μL of phenol-red free RPMI medium with standard additives. After overnight incubation library of chemical compounds in DMSO solution together with controls was added with the help of plastic bacterial replicators (200+/−100 nL). Final concentration of compounds was around 5 μg/ml. Negative control was DMSO, positive control was doxorubicin solution (0.2, 0.6 and 2 μM). After 24 hours lysis buffer with ONPG was added directly to the medium on ice. After 3 hours of incubation at 37° C., β-galactosidase activity was estimated by reading absorbance values Wallack 1420 plate reader (Perkin Elmer) at λ=430 nm.
For cotransfection set-up, 2×10^5 cells were plated into 6 well plates and, after overnight incubation, transfected with Lipofectamin Plus reagent (Gibco BRL) with 0.5 μg of reporter plasmids (p21-ConALuc or pNF-κBLuc) in combination with different concentrations of p53, Arf, Ss-IκB, or siHDM2 expressing plasmids. […] Luciferase activity and β-galactosidase activity was measured in lysates prepared 48 hours after transfection with Cell Lysis Buffer (Promega) by luciferase assay system (Promega) or β-galactosidase enzyme system (Promega). Luminometric and colorimetric reactions were read on the Wallack 1420 plate reader (Perkin Elmer). […]

[3] = system: RCC54 and RCC45, normal kidney epithelial cells; test: Sensitization to TRAIL, methylene blue assay; type: cell-based; conditions: RCC54, RCC45 vs normal kidney epithelial cells; combination with TRAIL
RCC cell lines = test: Restoration of p53-mediated transactivation in RCC cell lines; type: cell-based; conditions: data not shown
HT1080siGFP cells = test: Xenograft tumor growth, p53-expressing tumors; type: in vivo, nude mice; conditions: 50 mg/kg i.p. daily; 5FU 35 mg/kg for comparison
Experimental: as §5, §2

[4] = system: PC3 p53-negative or DU145 cells comprising mutant p53; test: Prostate cancer xenograft tumor growth; type: in vivo, mice; conditions: 100 mg/kg by oral gavage; control sterile water
From the text: Mice were also inoculated with 2×10^6 human prostate cancer cells using PC3 p53-negative or with DU145 cells comprising mutant p53. […] Tumor growth was reduced by ˜50% in quinacrine-treated mice.

H1299-NF-kBLuc cells = test: NF-κB-responsive luciferase reporter assay; type: cell-based; conditions: basal and TNF-induced (10 ng/ml)

O=c1[nH]cc(F)c(=O)[nH]1 [5FU, 5-fluorouracil]
weight loss (ACHN cells; 5FU 35 mg/kg): up to 20%

CC(C)C[C@@H](C=O)NC(=O)[C@H](CC(C)C)NC(=O)[C@H](CC(C)C)NC(=O)OCc1ccccc1 [MG132] (Cbz-Leu-Leu-Leu-aldehyde)
level of IκB (IκB): caused accumulation of phosphorylated forms of IkB

CC[C@@]1(O)C(=O)OCc2c1cc1n(c2=O)Cc2cc3ccccc3nc2-1 [camptothecin]
toxicity found to be p53-dependent (none = not p53-dependent) [1]: none

COc1cccc2c1C(=O)c1c(O)c3c(c(O)c1C2=O)C[C@@](O)(C(=O)CO)C[C@@H]3O[C@H]1C[C@H](N)[C@H](O)[C@H](C)O1 [doxorubicin]
toxicity found to be p53-dependent (none = not p53-dependent) [1]: none | expression of p53-responsive reporter in tumor samples [2]: not | p53 phosphorylation status (p53): did induce phosphorylation of p53

CC(=O)O[C@H]1C(=O)[C@@]2(C)[C@H]([C@H](OC(=O)c3ccccc3)[C@]3(O)C[C@H](OC(=O)[C@H](O)[C@@H](NC(=O)c4ccccc4)c4ccccc4)C(C)=C1C3(C)C)[C@]1(OC(C)=O)CO[C@@H]1C[C@@H]2O [paclitaxel]
toxicity found to be p53-dependent (none = not p53-dependent) [1]: none

CCN(CC)CCCC(C)Nc1c2ccc(Cl)cc2nc2ccc(OC)cc12 (stereo not shown) [quinacrine, Quinacrine]
growth of p53-deficient tumors (HT1080sip53 cells): no effect | activation of p53 in tumors (HT1080ConALuC tumors): capable of activating p53 in tumors | p53 reactivation / reporter induction (in words) (RCC45ConALacZ cells): intermediate level of activity | TRAIL resistance [3]: inverted TRAIL resistance of tumor but not normal kidney cells | RCC cell lines with restored p53-mediated transactivation (RCC cell lines): 9 out of 10 | growth of p53-expressing tumors (HT1080siGFP cells): inhibited growth of p53-expressing tumors to the same extend as 5FU | expression of p53-responsive reporter in tumor samples [2]: induced expression of the p53-responsive reporter | weight loss (in words) (ACHN cells; 50 mg/kg intraperitoneally): without significant weight loss | inhibition of tumor growth (ACHN cells; ACHN s.c. in nude mice, 50 mg/kg intraperitoneally): about 50% | reduction of tumor growth [4]: ~50% | NF-κB-responsive reporter activity (H1299-NF-kBLuc cells): inhibited basal and TNF-induced activity of the reporter

CC[C@]1(O)C[C@@H]2CN(CCc3c([nH]c4ccccc34)[C@@](C(=O)OC)(c3cc4c(cc3OC)N(C)[C@H]3[C@@](O)(C(=O)OC)[C@H](OC(C)=O)[C@]5(CC)C=CCN6CC[C@]43[C@@H]65)C2)C1 [vinblastine]
toxicity found to be p53-dependent (none = not p53-dependent) [1]: none
